Assay results as given in US6737383B1, “Herbicidal oxadiazolidines” (priority 1999, dated 2004).

What was measured:
wild oat = assay: Test B pre/postemergence wild oat; assay type: in vivo, Avena fatua
How it was run: (§1)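 Response is a visual 0-to-10 score relative to untreated plants, where 0 means no effect and 10 means complete control, taken twelve to sixteen days after application. Treatments went onto soil at planting and onto foliage of 1- to 4-leaf plants, using a surfactant-containing non-phytotoxic solvent.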

giant foxtail = assay: Test B pre/postemergence giant foxtail; assay type: in vivo, Setaria faberii
How it was run: as §1

purple nutsedge = assay: Test B pre/postemergence purple nutsedge; assay type: in vivo, Cyperus rotundus
How it was run: as §1

velvetleaf = assay: Test B pre/postemergence velvetleaf; assay type: in vivo, Abutilon theophrasti
How it was run: as §1

sugar beet = assay: Test B pre/postemergence sugar beet; assay type: in vivo, Beta vulgaris
How it was run: as §1

surinam grass = assay: Test B pre/postemergence surinam grass; assay type: in vivo, Brachiaria decumbens
How it was run: as §1

morningglory = assay: Test B pre/postemergence morningglory; assay type: in vivo, Ipomoea hederacea
How it was run: as §1

rape = assay: Test B pre/postemergence rape; assay type: in vivo, Brassica napus
How it was run: as §1

cocklebur = assay: Test B pre/postemergence cocklebur; assay type: in vivo, Xanthium strumarium
How it was run: as §1

pigweed = assay: Test B pre/postemergence pigweed; assay type: in vivo, Amaranthus retroflexus
How it was run: as §1

bedstraw = assay: Test B pre/postemergence bedstraw; assay type: in vivo, Galium aparine; settings: for Bedstraw plant response rating: 10 is complete control; for Plant response rating, Bedstraw: scale of 0 to 10 where 0 is no effect and 10 is complete control
How it was run: as §1

wheat = assay: Test B pre/postemergence wheat; assay type: in vivo, Triticum aestivum
How it was run: as §1

blackgrass = assay: Test B pre/postemergence blackgrass; assay type: in vivo, Alopecurus myosuroides
How it was run: as §1

soybean = assay: Test B pre/postemergence soybean; assay type: in vivo, Glycine max
How it was run: as §1

corn = assay: Test B pre/postemergence corn; assay type: in vivo, Zea mays
How it was run: as §1

crabgrass = assay: Test B pre/postemergence crabgrass; assay type: in vivo, Digitaria sanguinalis
How it was run: as §1

[1] = Postemergence, Rate 62 g/ha, scale of 0 to 10, 0 is no effect, 10 is complete control
[2] = Postemergence, Rate 125 g/ha, scale 0 to 10, 0 is no effect, 10 is complete control
[3] = Postemergence, Rate 500 g/ha, scale 0 to 10, 0 is no effect, 10 is complete control
[4] = Preemergence, Rate 62 g/ha, scale of 0 to 10 where 0 is no effect and 10 is complete control
[5] = Preemergence, Rate 125 g/ha, scale 0 to 10, 0 is no effect, 10 is complete control
[6] = Preemergence, Rate 500 g/ha, scale of 0 to 10 where 0 is no effect and 10 is complete control
[7] = Postemergence, Rate 250 g/ha, scale 0 to 10, 0 no effect, 10 complete control
[8] = Preemergence, Rate 250 g/ha, scale 0 to 10, 0 is no effect, 10 is complete control
[9] = Preemergence, Rate 500 g/ha, scale 0 to 10, 0 is no effect, 10 is complete control
[10] = Postemergence, Rate 250 g/ha, scale 0 to 10
[11] = Preemergence, Rate 250 g/ha, scale 0 to 10, 0 is no effect
[12] = Preemergence, Rate 500 g/ha, scale 0 to 10, 0 is no effect

CC(C)N(C(=O)n1oc(=O)n(C(C)C(=O)c2ccccc2)c1=O)c1ccc(F)cc1F (stereo not drawn) [Compound 511]
Wild oats plant response rating (wild oat; [1]): 0 | Wild oats plant response rating (wild oat; [2]): 0 | Plant response rating, Wild oats (wild oat; [3]): 0 | Plant response rating, Wild oats (wild oat; [4]): 0 | Wild oats plant response rating (wild oat; [5]): 0 | Wild oats plant response rating (wild oat; [6]): 2 | Giant foxtail plant response rating (giant foxtail; [1]): 3 | Giant foxtail plant response rating (giant foxtail; [2]): 3 | Plant response rating, Giant foxtail (giant foxtail; [3]): 9 | Plant response rating, Giant foxtail (giant foxtail; [4]): 5 | Giant foxtail plant response rating (giant foxtail; [6]): 10 | Nutsedge plant response rating (purple nutsedge; [1]): 0 | Nutsedge plant response rating (purple nutsedge; [2]): 0 | Plant response rating, Nutsedge (purple nutsedge; [3]): 0 | Plant response rating, Nutsedge (purple nutsedge; [4]): 0 | Nutsedge plant response rating (purple nutsedge; [5]): 0 | Nutsedge plant response rating (purple nutsedge; [6]): 0 | Velvetleaf plant response rating (velvetleaf; [1]): 0 | Velvetleaf plant response rating (velvetleaf; [2]): 1 | Plant response rating, Velvetleaf (velvetleaf; [3]): 2 | Plant response rating, Velvetleaf (velvetleaf; [4]): 0 | Velvetleaf plant response rating (velvetleaf; [5]): 0 | Velvetleaf plant response rating (velvetleaf; [6]): 0 | Sugarbeets plant response rating (sugar beet; [1]): 0 | Sugarbeets plant response rating (sugar beet; [2]): 0 | Plant response rating, Sugarbeets (sugar beet; [3]): 2 | Plant response rating, Sugarbeets (sugar beet; [4]): 0 | Sugarbeets plant response rating (sugar beet; [5]): 0 | Sugarbeets plant response rating (sugar beet; [6]): 0 | B. signalgrass plant response rating (surinam grass; [1]): 0 | B. signalgrass plant response rating (surinam grass; [2]): 0 | B. signalgrass plant response rating (surinam grass; [7]): 0 | Plant response rating, B. signalgrass (surinam grass; [3]): 3 | Plant response rating, B. signalgrass (surinam grass; [4]): 0 | B. signalgrass plant response rating (surinam grass; [5]): 0 | B. signalgrass plant response rating (surinam grass; [8]): 0 | B. signalgrass plant response rating (surinam grass; [9]): 0 | Morningglory plant response rating (morningglory; [1]): 4 | Morningglory plant response rating (morningglory; [2]): 4 | Plant response rating, Morningglory (morningglory; [3]): 5 | Plant response rating, Morningglory (morningglory; [4]): 0 | Morningglory plant response rating (morningglory; [5]): 0 | Morningglory plant response rating (morningglory; [6]): 0 | Rape plant response rating (rape; [1]): 0 | Rape plant response rating (rape; [2]): 1 | Plant response rating, Rape (rape; [3]): 4 | Plant response rating, Rape (rape; [4]): 0 | Rape plant response rating (rape; [5]): 0 | Rape plant response rating (rape; [6]): 0 | Cocklebur plant response rating (cocklebur; [1]): 0 | Cocklebur plant response rating (cocklebur; [2]): 0 | Cocklebur plant response rating (cocklebur; [10]): 0 | Plant response rating, Cocklebur (cocklebur; [3]): 0 | Plant response rating, Cocklebur (cocklebur; [4]): 0 | Cocklebur plant response rating (cocklebur; [5]): 0 | Cocklebur plant response rating (cocklebur; [8]): 0 | Cocklebur plant response rating (cocklebur; [6]): 0 | Redroot pigweed plant response rating (pigweed; [1]): 5 | Redroot pigweed plant response rating (pigweed; [2]): 6 | Plant response rating, Redroot pigweed (pigweed; [3]): 7 | Plant response rating, Redroot pigweed (pigweed; [4]): 4 | Redroot pigweed plant response rating (pigweed; [5]): 6 | Redroot pigweed plant response rating (pigweed; [6]): 8 | Bedstraw plant response rating (bedstraw; Postemergence, Rate 125 g/ha, scale 0 to 10, 0 is no effect): 8 | Plant response rating, Bedstraw (bedstraw; Preemergence, Rate 62 g/ha): 0 | Bedstraw plant response rating (bedstraw; Preemergence, Rate 125 g/ha, scale 0 to 10, 0 is no effect): 0 | Bedstraw plant response rating (bedstraw; [11]): 0 | Bedstraw plant response rating (bedstraw; [12]): 0 | Wheat plant response rating (wheat; [1]): 0 | Wheat plant response rating (wheat; [2]): 0 | Plant response rating, Wheat (wheat; [3]): 0 | Plant response rating, Wheat (wheat; [4]): 0 | Wheat plant response rating (wheat; [5]): 0 | Wheat plant response rating (wheat; [6]): 0 | Blackgrass plant response rating (blackgrass; [1]): 0 | Blackgrass plant response rating (blackgrass; [2]): 0 | Blackgrass plant response rating (blackgrass; [10]): 0 | Plant response rating, Blackgrass (blackgrass; [3]): 2 | Plant response rating, Blackgrass (blackgrass; [4]): 0 | Blackgrass plant response rating (blackgrass; [5]): 0 | Blackgrass plant response rating (blackgrass; [8]): 0 | Blackgrass plant response rating (blackgrass; [6]): 0 | Soybean plant response rating (soybean; [1]): 1 | Soybean plant response rating (soybean; [2]): 4 | Plant response rating, Soybean (soybean; [3]): 4 | Plant response rating, Soybean (soybean; [4]): 0 | Soybean plant response rating (soybean; [5]): 0 | Soybean plant response rating (soybean; [6]): 0 | Corn plant response rating (corn; [1]): 0 | Corn plant response rating (corn; [2]): 0 | Corn plant response rating (corn; [10]): 0 | Plant response rating, Corn (corn; [3]): 0 | Plant response rating, Corn (corn; [4]): 0 | Corn plant response rating (corn; [5]): 0 | Corn plant response rating (corn; [6]): 0 | Crabgrass plant response rating (crabgrass; [1]): 3 | Crabgrass plant response rating (crabgrass; [2]): 3 | Crabgrass plant response rating (crabgrass; [10]): 7 | Plant response rating, Crabgrass (crabgrass; [3]): 9 | Plant response rating, Crabgrass (crabgrass; [4]): 5 | Crabgrass plant response rating (crabgrass; [5]): 6 | Crabgrass plant response rating (crabgrass; [6]): 10

COC(=O)CCCn1c(=O)on(C(=O)N(c2ccc(F)cc2F)C(C)C)c1=O [Compound 513]
Wild oats plant response rating (wild oat; [1]): 0 | Wild oats plant response rating (wild oat; [2]): 4 | Plant response rating, Wild oats (wild oat; [3]): 6 | Plant response rating, Wild oats (wild oat; [4]): 3 | Wild oats plant response rating (wild oat; [5]): 3 | Wild oats plant response rating (wild oat; [6]): 10 | Giant foxtail plant response rating (giant foxtail; [1]): 1 | Giant foxtail plant response rating (giant foxtail; [2]): 5 | Plant response rating, Giant foxtail (giant foxtail; [3]): 8 | Plant response rating, Giant foxtail (giant foxtail; [4]): 2 | Giant foxtail plant response rating (giant foxtail; [5]): 6 | Giant foxtail plant response rating (giant foxtail; [6]): 10 | Nutsedge plant response rating (purple nutsedge; [1]): 0 | Nutsedge plant response rating (purple nutsedge; [2]): 0 | Plant response rating, Nutsedge (purple nutsedge; [3]): 5 | Plant response rating, Nutsedge (purple nutsedge; [4]): 0 | Nutsedge plant response rating (purple nutsedge; [5]): 0 | Nutsedge plant response rating (purple nutsedge; [6]): 0 | Velvetleaf plant response rating (velvetleaf; [1]): 3 | Velvetleaf plant response rating (velvetleaf; [2]): 3 | Plant response rating, Velvetleaf (velvetleaf; [3]): 7 | Plant response rating, Velvetleaf (velvetleaf; [4]): 0 | Velvetleaf plant response rating (velvetleaf; [5]): 0 | Velvetleaf plant response rating (velvetleaf; [6]): 0 | Sugarbeets plant response rating (sugar beet; [1]): 2 | Sugarbeets plant response rating (sugar beet; [2]): 4 | Plant response rating, Sugarbeets (sugar beet; [3]): 7 | Plant response rating, Sugarbeets (sugar beet; [4]): 0 | Sugarbeets plant response rating (sugar beet; [5]): 0 | Sugarbeets plant response rating (sugar beet; [6]): 0 | B. signalgrass plant response rating (surinam grass; [1]): 0 | B. signalgrass plant response rating (surinam grass; [2]): 3 | B. signalgrass plant response rating (surinam grass; [7]): 6 | Plant response rating, B. signalgrass (surinam grass; [3]): 8 | Plant response rating, B. signalgrass (surinam grass; [4]): 0 | B. signalgrass plant response rating (surinam grass; [5]): 0 | B. signalgrass plant response rating (surinam grass; [8]): 5 | B. signalgrass plant response rating (surinam grass; [9]): 9 | Morningglory plant response rating (morningglory; [1]): 3 | Morningglory plant response rating (morningglory; [2]): 3 | Plant response rating, Morningglory (morningglory; [3]): 9 | Plant response rating, Morningglory (morningglory; [4]): 0 | Morningglory plant response rating (morningglory; [5]): 0 | Morningglory plant response rating (morningglory; [6]): 3 | Rape plant response rating (rape; [1]): 0 | Rape plant response rating (rape; [2]): 4 | Plant response rating, Rape (rape; [3]): 7 | Plant response rating, Rape (rape; [4]): 0 | Rape plant response rating (rape; [5]): 2 | Rape plant response rating (rape; [6]): 7 | Cocklebur plant response rating (cocklebur; [1]): 3 | Cocklebur plant response rating (cocklebur; [2]): 3 | Cocklebur plant response rating (cocklebur; [10]): 6 | Plant response rating, Cocklebur (cocklebur; [3]): 7 | Plant response rating, Cocklebur (cocklebur; [4]): 0 | Cocklebur plant response rating (cocklebur; [5]): 0 | Cocklebur plant response rating (cocklebur; [8]): 0 | Cocklebur plant response rating (cocklebur; [6]): 0 | Redroot pigweed plant response rating (pigweed; [1]): 3 | Redroot pigweed plant response rating (pigweed; [2]): 6 | Plant response rating, Redroot pigweed (pigweed; [3]): 7 | Plant response rating, Redroot pigweed (pigweed; [4]): 7 | Redroot pigweed plant response rating (pigweed; [5]): 7 | Redroot pigweed plant response rating (pigweed; [6]): 10 | Bedstraw plant response rating (bedstraw; Postemergence, Rate 62 g/ha, scale of 0 to 10, 0 is no effect): 6 | Plant response rating, Bedstraw (bedstraw; Preemergence, Rate 62 g/ha): 0 | Bedstraw plant response rating (bedstraw; [11]): 0 | Bedstraw plant response rating (bedstraw; [12]): 4 | Wheat plant response rating (wheat; [1]): 3 | Wheat plant response rating (wheat; [2]): 5 | Plant response rating, Wheat (wheat; [3]): 6 | Plant response rating, Wheat (wheat; [4]): 0 | Wheat plant response rating (wheat; [5]): 2 | Wheat plant response rating (wheat; [6]): 7 | Blackgrass plant response rating (blackgrass; [1]): 4 | Blackgrass plant response rating (blackgrass; [2]): 4 | Blackgrass plant response rating (blackgrass; [10]): 8 | Plant response rating, Blackgrass (blackgrass; [3]): 8 | Plant response rating, Blackgrass (blackgrass; [4]): 1 | Blackgrass plant response rating (blackgrass; [5]): 4 | Blackgrass plant response rating (blackgrass; [8]): 4 | Blackgrass plant response rating (blackgrass; [6]): 10 | Soybean plant response rating (soybean; [1]): 1 | Soybean plant response rating (soybean; [2]): 7 | Plant response rating, Soybean (soybean; [3]): 8 | Plant response rating, Soybean (soybean; [4]): 0 | Soybean plant response rating (soybean; [5]): 0 | Soybean plant response rating (soybean; [6]): 5 | Corn plant response rating (corn; [1]): 0 | Corn plant response rating (corn; [2]): 0 | Corn plant response rating (corn; [10]): 0 | Plant response rating, Corn (corn; [3]): 3 | Plant response rating, Corn (corn; [4]): 0 | Corn plant response rating (corn; [5]): 0 | Corn plant response rating (corn; [6]): 4 | Crabgrass plant response rating (crabgrass; [1]): 1 | Crabgrass plant response rating (crabgrass; [2]): 4 | Crabgrass plant response rating (crabgrass; [10]): 6 | Plant response rating, Crabgrass (crabgrass; [3]): 9 | Plant response rating, Crabgrass (crabgrass; [4]): 4 | Crabgrass plant response rating (crabgrass; [5]): 4 | Crabgrass plant response rating (crabgrass; [6]): 5
